Source: article PMC9671962 (Communications Biology, 2022)
“And” between values parts separate entries of the source, which are not always exact repeats. Equal entries are not always repeated.

Tests used:
[1] = Biodistribution in healthy CB57/BL6 mice with estimated human dosimetry (OLINDA/EXM); type: in vivo
Method: Using female mice was justified due to the lack of sex-related differences observed from initial dose-finding studies. […] At various time points mice were euthanized and tissues were harvested, weighed, and assayed for radioactivity by gamma counter. Decay corrected data is presented as percent injected dose per gram of tissue (%ID/g). […]
(§1) Animal studies were performed in female mice due to the lack of sex-related differences for [^211At]PTT tolerability from initial dose response studies performed in female and male mice. Female mice were chosen due to their underlying behavior towards other study subjects that reduced nonstudy-related causes for decreased wellness. Pre-clinical efficacy studies were performed through “single mouse testing” to more closely recapitulate a clinical trial. […] Number size for treatment groups was determined by model tumor growth reproducibility, which was previously shown to have less than 5% normal variation with at least two animals. Statistical tests for tumor response and event-free survival (EFS) were performed as a grouped analysis that included all tumor models treated at each respective dose level (n = 2 per model per dose level). Statistical differences between treatment groups for tumor response was performed by paired-model T-test that compared reduction in tumor volume for the 36 MBq/kg dose level vs. 24 MBq/kg or 12 MBq/kg. Event free survival was measured by area over the curve method to quantify time to event, which was set as tumor growth exceeding 2 cm[3],[19]. Differences in EFS were tested across all treated models for each respective dose level, and against untreated controls, by paired-model ANOVA analysis. Associations of drug target expression and response were performed by linear regression analysis of EFS and PARP1 mRNA expression. Genetic signatures were visually presented as a function of EFS and no statistical tests were applied. Blood and marrow toxicity studies were performed with n = 5 sample sizes and powered to detect >20% differences between untreated controls and treated animals. Results were tested for significance by one-way ANOVA comparison from untreated controls. Marrow colony formation assays were performed in replicates of 2 for each mouse subject, dependent on marrow isolation, and all replicates are included in final analyses. Statistical analysis was performed by ordinary one-way ANOVA comparison between the mean of control and test groups. Biodistribution studies were performed with n = 3 mice per time-point. Human dosimetry was calculated using OLINDA/EXM v1.1 software by fitting time activity curves for biodistribution data in a healthy mouse model. Tumor dosimetry was calculated by OLINDA/EXM v1.1 by fitting time activity curves for NB-EBC1 tumors from biodistribution data. All statistical analyses were performed in GraphPad Prism version 9.3.1 unless indicated otherwise.

NB-EBC1x tumor = assay: Biodistribution, autoradiography and tumor dosimetry in NB-EBC1x tumor-bearing mice; type: in vivo, female SCID CB17 mice; settings: for %Injected Dose/gram, tumor: NB-EBC1 tumor, single mouse
Method: At various time points mice were euthanized and tissues were harvested, weighed, and assayed for radioactivity by gamma counter. Decay corrected data presented as percent injected dose per gram of tissue (%ID/g). Human dosimetry was calculated using OLINDA/EXM software by fitting time activity curves for biodistribution data. Tissue autoradiography was performed by freezing excised tumors at 1 h postinjection of each respective treatment. One tumor was collected for each treatment group. Tumors were cryosectioned (Leica Cryotome) at a thickness of 20 µm. Each section was collected with a 200 µm gap and a total of three sections were collected for each tumor. Sections were then exposed to a phosphorfilm for 60 h and films were read on a Cyclone Plus phosphorimager (Perkin Elmer). Experimental conditions have been included in the Supplementary Methods.
as §1

[2] = 1-year-old, from CB57/BL6 mouse biodistribution
[3] = 5-year-old, from CB57/BL6 mouse biodistribution

## O=C1NCCn2c(-c3ccc([211At])cc3)nc3cccc1c32 [[^211At]PTT, Astatine-211-parthanatine]
[1]; 0.02 kg mouse, 36 MBq/kg
  marrow dose per dose fraction: approximately 2.5 Gy
[1]; [2]
  Estimated human dosimetry, Adrenals: 0.005 Gy per MBq/kg
  Estimated human dosimetry, Brain: 0.002 Gy per MBq/kg
  Estimated human dosimetry, Breasts: 0.005 Gy per MBq/kg
  Estimated human dosimetry, Gallbladder: 0.005 Gy per MBq/kg
  Estimated human dosimetry, Heart: 0.017 Gy per MBq/kg and 0.026 Gy per MBq/kg and 0.020 Gy per MBq/kg
  Estimated human dosimetry, Kidneys: 0.021 Gy per MBq/kg and 0.034 Gy per MBq/kg and 0.028 Gy per MBq/kg
  Estimated human dosimetry, Left Colon: 0.005 Gy per MBq/kg and 0.006 Gy per MBq/kg
  Estimated human dosimetry, Liver: 0.019 Gy per MBq/kg and 0.018 Gy per MBq/kg and 0.033 Gy per MBq/kg
  Estimated human dosimetry, Muscle: 0.008 Gy per MBq/kg and 0.016 Gy per MBq/kg
  Estimated human dosimetry, Ovaries: 0.005 Gy per MBq/kg
  Estimated human dosimetry, Red Marrow: 0.070 Gy per MBq/kg and 0.091 Gy per MBq/kg and 0.065 Gy per MBq/kg and 0.073 Gy per MBq/kg
  Estimated human dosimetry, Right Colon: 0.005 Gy per MBq/kg and 0.006 Gy per MBq/kg
  Estimated human dosimetry, Skin: 0.005 Gy per MBq/kg
  Estimated human dosimetry, Small Intestine: 0.005 Gy per MBq/kg
  Estimated human dosimetry, Spleen: 0.061 Gy per MBq/kg and 0.070 Gy per MBq/kg and 0.084 Gy per MBq/kg and 0.051 Gy per MBq/kg
  Estimated human dosimetry, Stomach: 0.005 Gy per MBq/kg
  Estimated human dosimetry, Testes: 0.005 Gy per MBq/kg
  Estimated human dosimetry, Thymus: 0.005 Gy per MBq/kg
  Estimated human dosimetry, Total Body: 0.009 Gy per MBq/kg and 0.010 Gy per MBq/kg and 0.011 Gy per MBq/kg
  Estimated human dosimetry, Urinary Bladder: 0.005 Gy per MBq/kg
  Estimated human dosimetry, Uterus: 0.005 Gy per MBq/kg
[1]; [3]
  Estimated human dosimetry, Adrenals: 0.004 Gy per MBq/kg and 0.005 Gy per MBq/kg
  Estimated human dosimetry, Brain: 0.002 Gy per MBq/kg and 0.001 Gy per MBq/kg
  Estimated human dosimetry, Breasts: 0.004 Gy per MBq/kg and 0.005 Gy per MBq/kg
  Estimated human dosimetry, Gallbladder: 0.004 Gy per MBq/kg and 0.005 Gy per MBq/kg
  Estimated human dosimetry, Heart: 0.015 Gy per MBq/kg and 0.016 Gy per MBq/kg and 0.024 Gy per MBq/kg and 0.018 Gy per MBq/kg
  Estimated human dosimetry, Kidneys: 0.018 Gy per MBq/kg and 0.029 Gy per MBq/kg and 0.023 Gy per MBq/kg
  Estimated human dosimetry, Left Colon: 0.004 Gy per MBq/kg and 0.005 Gy per MBq/kg
  Estimated human dosimetry, Ovaries: 0.004 Gy per MBq/kg and 0.005 Gy per MBq/kg
  Estimated human dosimetry, Red Marrow: 0.074 Gy per MBq/kg and 0.069 Gy per MBq/kg and 0.093 Gy per MBq/kg and 0.066 Gy per MBq/kg
  Estimated human dosimetry, Right Colon: 0.004 Gy per MBq/kg and 0.005 Gy per MBq/kg
  Estimated human dosimetry, Skin: 0.004 Gy per MBq/kg and 0.005 Gy per MBq/kg
  Estimated human dosimetry, Small Intestine: 0.004 Gy per MBq/kg and 0.005 Gy per MBq/kg
  Estimated human dosimetry, Spleen: 0.055 Gy per MBq/kg and 0.063 Gy per MBq/kg and 0.076 Gy per MBq/kg and 0.049 Gy per MBq/kg
  Estimated human dosimetry, Stomach: 0.004 Gy per MBq/kg and 0.005 Gy per MBq/kg
  Estimated human dosimetry, Testes: 0.004 Gy per MBq/kg and 0.005 Gy per MBq/kg
  Estimated human dosimetry, Thymus: 0.004 Gy per MBq/kg and 0.005 Gy per MBq/kg
  Estimated human dosimetry, Total Body: 0.009 Gy per MBq/kg and 0.011 Gy per MBq/kg
  Estimated human dosimetry, Urinary Bladder: 0.004 Gy per MBq/kg and 0.005 Gy per MBq/kg
  Estimated human dosimetry, Uterus: 0.004 Gy per MBq/kg and 0.005 Gy per MBq/kg
[1]; derived from the mouse model
  predicted kidney dose scaled for an adult: 0.34–0.44 mGy/MBq
[1]; extrapolated from mouse biodistribution to a 1-year-old human phantom
  predicted kidney dose: 0.026 Gy per MBq/kg
NB-EBC1x tumor; 1-year-old phantom, derived from NB-EBC1 tumor-bearing mouse model
  average tumor dose: 0.060 Gy per MBq/kg
NB-EBC1x tumor; 1 h
  thyroid uptake with co-administration of potassium iodide: partially blocked
NB-EBC1x tumor; NB-EBC1 tumor-bearing CB57 SCID mice, three values
  Absorbed Dose, Tumor: 4.5716 cGy/MBq/kg and 5.9806 cGy/MBq/kg and 7.417 cGy/MBq/kg
NB-EBC1x tumor; time point 0.5
  %Injected Dose/gram, tumor: 2.4065 %ID/g and 3.551 %ID/g and 6.66 %ID/g
NB-EBC1x tumor; time point 1
  %Injected Dose/gram, tumor: 8.705 %ID/g and 13.3276 %ID/g and 24.86 %ID/g
NB-EBC1x tumor; time point 6
  %Injected Dose/gram, tumor: 7.986 %ID/g and 8.236 %ID/g and 8.192 %ID/g
NB-EBC1x tumor; time point 24
  %Injected Dose/gram, tumor: 0.008485 %ID/g and 1.144 %ID/g and 1.578 %ID/g
NB-EBC1x tumor; NB-EBC1 tumors, 1 h postinjection
  tumor penetrance by ex-vivo autoradiography: high tumor penetrance
NB-EBC1x tumor; NB-EBC1x tumor-bearing mouse model
  tumor dosimetry (estimated): 6 cGy/MBq/kg
NB-EBC1x tumor; NB-EBC1x, after 4 dose fractions of 36 MBq/kg
  cumulative absorbed dose to tumor: 8.6 Gy
NB-EBC1x tumor; NB-EBC1x, per 36 MBq/kg dose
  absorbed dose to tumor per dose fraction: 2.15 Gy
NB-EBC1x tumor; seen in mice in the present study
  biological half-life in tumor: 5.1 hr
